The supplement of paper PMC10307832

Legend:
Assay in all cases: relative viability (nuclei count vs DMSO), 5 days (fraction); higher = more cells survive
[1] = compound: CC[C@H](CO)Nc1nc(NCc2ccccc2)c2ncn(C(C)C)c2n1 [Seliciclib]
Summary of the method: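 Viability here means nuclei in treated wells divided by nuclei in vehicle wells, reported as the median across plates. Only plates with control CV below 25% and at least one doubling passed. Lung cancer cell lines in 1536-well plates were exposed to five √10-spaced library-drug doses for 5 days and counted from 4× Hoechst images in MetaXpress.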

[2] = compound: CC[C@H](CO)Nc1nc(NCc2ccccc2)c2ncn(C(C)C)c2n1 [Seliciclib] + Cc1cc(Nc2cc(N3CCN(C)CC3)nc(Sc3ccc(NC(=O)C4CC4)cc3)n2)n[nH]1 [Tozasertib] (partner 0.1 µM)
Summary of the method: (§1)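 For relative viability, nuclei counts in treated wells were divided by those in vehicle wells. Lung cancer cell lines had been pin-tool dosed in 1536-well plates the day after seeding and cultured for 5 days, then fixed and stained in one step (final 0.05% Triton X-100, 1% formaldehyde, 1 ug/ml Hoechst) and imaged at 4×. Doses were one drug alone or a fixed anchor-drug dose plus five library-drug doses (not always all listed) in √10 steps, and values are duplicate-plate medians.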

[3] = compound: CC[C@H](CO)Nc1nc(NCc2ccccc2)c2ncn(C(C)C)c2n1 [Seliciclib] + Nc1nc2[nH]cc(CCc3ccc(C(=O)N[C@@H](CCC(=O)O)C(=O)O)cc3)c2c(=O)[nH]1 [Pemetrexed] (partner 0.2 µM)
Summary of the method: as §1

[4] = compound: CC[C@H](CO)Nc1nc(NCc2ccccc2)c2ncn(C(C)C)c2n1 [Seliciclib] + CC(=O)c1c(C)c2cnc(Nc3ccc(N4CCNCC4)cn3)nc2n(C2CCCC2)c1=O [Palbociclib] (partner 0.5 µM)
Summary of the method: as §1

[5] = compound: CC[C@H](CO)Nc1nc(NCc2ccccc2)c2ncn(C(C)C)c2n1 [Seliciclib] + Cc1nc(Nc2ncc(C(=O)Nc3c(C)cccc3Cl)s2)cc(N2CCN(CCO)CC2)n1 [Dasatinib] (partner 0.075 µM)
Summary of the method: as §1

[6] = compound: CC[C@H](CO)Nc1nc(NCc2ccccc2)c2ncn(C(C)C)c2n1 [Seliciclib] + O=C(c1cc(Cc2n[nH]c(=O)c3ccccc23)ccc1F)N1CCN(C(=O)C2CC2)CC1 [Olaparib] (partner 8 µM)
Summary of the method: as §1

[7] = compound: CC[C@H](CO)Nc1nc(NCc2ccccc2)c2ncn(C(C)C)c2n1 [Seliciclib] + CCNC(=O)c1noc(-c2cc(C(C)C)c(O)cc2O)c1-c1ccc(CN2CCOCC2)cc1 [Luminespib] (partner 0.01 µM)
Summary of the method: as §1

[8] = compound: CC[C@H](CO)Nc1nc(NCc2ccccc2)c2ncn(C(C)C)c2n1 [Seliciclib] + Nc1ncn([C@H]2C[C@H](O)[C@@H](CO)O2)c(=O)n1 [Decitabine] (partner 2 µM)
Summary of the method: as §1

[9] = compound: CC[C@H](CO)Nc1nc(NCc2ccccc2)c2ncn(C(C)C)c2n1 [Seliciclib] + COc1cccc2cc(-c3nc([C@H]4CC[C@H](C(=O)O)CC4)n4ncnc(N)c34)[nH]c12 [OSI-027] (partner 0.5 µM)
Summary of the method: as §1

[10] = compound: CC[C@H](CO)Nc1nc(NCc2ccccc2)c2ncn(C(C)C)c2n1 [Seliciclib] + N=C(N)NC(=N)NCCc1ccccc1 [Phenformin] (partner 250 µM)
Summary of the method: as §1

[11] = compound: CC[C@H](CO)Nc1nc(NCc2ccccc2)c2ncn(C(C)C)c2n1 [Seliciclib] + NC(=O)Nc1cc(-c2cccc(F)c2)sc1C(=O)N[C@H]1CCCNC1 [AZD7762] (partner 0.2 µM)
Summary of the method: as §1

[12] = compound: CC[C@H](CO)Nc1nc(NCc2ccccc2)c2ncn(C(C)C)c2n1 [Seliciclib] + O=C(CCCCCCC(=O)Nc1ccccc1)NO [Vorinostat] (partner 1 µM)
Summary of the method: as §1

[13] = compound: CC[C@H](CO)Nc1nc(NCc2ccccc2)c2ncn(C(C)C)c2n1 [Seliciclib] + CC(=O)Nc1cccc(-n2c(=O)n(C3CC3)c(=O)c3c(Nc4ccc(I)cc4F)n(C)c(=O)c(C)c32)c1 [Trametinib] (partner 0.02 µM)
Summary of the method: as §1

## NCI-H522
[1]; 0.08 µM
  relative viability: 0.944
[1]; 0.253 µM
  relative viability: 0.94
[1]; 0.8 µM
  relative viability: 1.05
[1]; 2.53 µM
  relative viability: 0.847
[1]; 8 µM
  relative viability: 0.727
[2]; first compound 0.08 µM
  relative viability: 0.711
[2]; first compound 0.253 µM
  relative viability: 0.523
[2]; first compound 0.8 µM
  relative viability: 0.547
[2]; first compound 2.53 µM
  relative viability: 0.49
[2]; first compound 8 µM
  relative viability: 0.614
[3]; first compound 0.08 µM
  relative viability: 1.11
[3]; first compound 0.253 µM
  relative viability: 0.917
[3]; first compound 0.8 µM
  relative viability: 1.18
[3]; first compound 2.53 µM
  relative viability: 1.01
[3]; first compound 8 µM
  relative viability: 0.914
[4]; first compound 0.08 µM
  relative viability: 0.913
[4]; first compound 0.253 µM
  relative viability: 1.01
[4]; first compound 0.8 µM
  relative viability: 0.972
[4]; first compound 2.53 µM
  relative viability: 0.909
[4]; first compound 8 µM
  relative viability: 0.87
[5]; first compound 0.08 µM
  relative viability: 1.06
[5]; first compound 0.253 µM
  relative viability: 0.827
[5]; first compound 0.8 µM
  relative viability: 1.05
[5]; first compound 2.53 µM
  relative viability: 0.82
[5]; first compound 8 µM
  relative viability: 0.834
[6]; first compound 0.08 µM
  relative viability: 0.797
[6]; first compound 0.253 µM
  relative viability: 0.621
[6]; first compound 0.8 µM
  relative viability: 0.533
[6]; first compound 2.53 µM
  relative viability: 0.64
[6]; first compound 8 µM
  relative viability: 0.59
[7]; first compound 0.08 µM
  relative viability: 1.05
[7]; first compound 0.253 µM
  relative viability: 0.954
[7]; first compound 0.8 µM
  relative viability: 1.15
[7]; first compound 2.53 µM
  relative viability: 1.12
[7]; first compound 8 µM
  relative viability: 0.938
[8]; first compound 0.08 µM
  relative viability: 0.699
[8]; first compound 0.253 µM
  relative viability: 0.545
[8]; first compound 0.8 µM
  relative viability: 0.659
[8]; first compound 2.53 µM
  relative viability: 0.645
[8]; first compound 8 µM
  relative viability: 0.611
[9]; first compound 0.08 µM
  relative viability: 0.818
[9]; first compound 0.253 µM
  relative viability: 0.63
[9]; first compound 0.8 µM
  relative viability: 0.685
[9]; first compound 2.53 µM
  relative viability: 0.623
[9]; first compound 8 µM
  relative viability: 0.644
[10]; first compound 0.08 µM
  relative viability: 0.731
[10]; first compound 0.253 µM
  relative viability: 0.655
[10]; first compound 0.8 µM
  relative viability: 0.645
[10]; first compound 2.53 µM
  relative viability: 0.599
[10]; first compound 8 µM
  relative viability: 0.709
[11]; first compound 0.08 µM
  relative viability: 0.862
[11]; first compound 0.253 µM
  relative viability: 0.717
[11]; first compound 0.8 µM
  relative viability: 0.863
[11]; first compound 2.53 µM
  relative viability: 0.952
[11]; first compound 8 µM
  relative viability: 0.873
[12]; first compound 0.08 µM
  relative viability: 0.854
[12]; first compound 0.253 µM
  relative viability: 0.84
[12]; first compound 0.8 µM
  relative viability: 1.01
[12]; first compound 2.53 µM
  relative viability: 0.881
[12]; first compound 8 µM
  relative viability: 0.744
[13]; first compound 0.08 µM
  relative viability: 0.735
[13]; first compound 0.253 µM
  relative viability: 0.672
[13]; first compound 0.8 µM
  relative viability: 0.778
[13]; first compound 2.53 µM
  relative viability: 0.673
[13]; first compound 8 µM
  relative viability: 0.713
